From US20250388575A1, “HETEROBIFUNCTIONAL COMPOUNDS AND METHODS OF TREATING DISEASE” (Halda Therapeutics OpCo, Inc., priority 2022, published 2025) come the findings set out here.

Like-named read-outs stand apart in the source and are kept apart here.

As usually defined, the GI50 is the concentration at which growth is held to half of that of the control.

One assay deals with T47D cells. In words: Cellular growth inhibition assay for T47D cells, CellTiter-Glo. To be noted: 72 hours treatment, CellTiter-Glo 2.0. Format: cell-based, human. How it is done:
T47D cells were purchased from American Type Cell Culture (ATCC Cat #HTB-133) and then seeded on poly-D-lysine coated, black clear-bottom 384-well plates at 3000/well in 25 μL Dulbecco's Modified Eagle Medium (DMEM) supplemented with 10% w/w Fetal bovine serum (FBS), 0.2 units/mL recombinant human insulin (Gibco Cat #12585014), and 1% w/w Pen-Strep. Pen-Strep is a commercially available mixture of penicillin G and streptomycin, which is used in mammalian cell culture media to prevent bacterial contamination. Dulbecco's Modified Eagle Medium (DMEM) supplemented with 10% w/w fetal bovine serum (FBS), 0.2 units/mL recombinant human insulin, and 1% w/w Pen-Strep is herein referred to as Treatment Medium. Following seeding of cells in the plates, the plates were spun at 300×g for 30 seconds, then equilibrated to room temperature for 30 minutes, and then deposited in a humidified tissue culture incubator maintained at 37° C. with 5% CO2.
At 24 hours after seeding of the cells, dilutions of test compound were prepared in DMSO and dissolved in Treatment Medium, to achieve a final DMSO concentration of 0.5% w/w, thereby providing the Test Compound Solution. A 25 μL aliquot of the Test Compound Solution was added to cells in the well plates. An equal volume of a solution containing DMSO and Treatment Medium was used as a negative control. Following treatment of cells with Test Compound Solution or said equal volume of a solution containing DMSO and Treatment Medium, the plates were spun at 300×g for 30 seconds, and then left in an incubator for 72 hours.
At the end of the treatment duration, cell viability was quantified with CellTiter-Glo 2.0 reagent (Promega Cat #G9243). For this purpose, plates were equilibrated to room temperature for 30 minutes, and then 25 μL of CellTiter-Glo 2.0 reagent was added to cells in the plate wells. Plates were then agitated on a shaker for two minutes at 500 rpm and subsequently incubated at room temperature for 10 minutes. Following incubation, the plates were spun at 3000×g for 30 seconds, then sealed with an optical adhesive cover, and luminescence readings were measured with an EnVision Plate Reader (Perkin Elmer).
Data was normalized using zero luminescence for baseline. A four-parameter non-linear regression curve fit was applied to dose-response data in GraphPad Prism data analysis software to determine the half-maximal growth inhibitory concentration (GI50) for each test compound.
In general terms: ATP-based viability assays read luminescence as a measure of living cells.

The subject of assay [1] is T-Rex 293 cell line SC3 cells having increased expression of androgen receptor protein. In words: Cellular growth inhibition, T-Rex 293 SC3 cells with increased androgen receptor expression (doxycycline), CellTiter-Glo. Format: cell-based. To be noted: T-Rex 293 SC3 cells with increased androgen receptor expression (exposed to 10 ng/mL doxycycline), 72 hours, CellTiter-Glo; read-out: GI50. Put shortly:
(§1)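 SC3, a T-Rex 293 clone with doxycycline-inducible wild-type androgen receptor, was seeded in phenol red-free DMEM with 10% charcoal-dextran FBS, with or without 10 ng/mL doxycycline. Compound added at 24 h (0.5% DMSO) for 72 h at 37° C. CellTiter-Glo 2.0 luminescence; GI50 from four-parameter fit.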

The test system of another assay is VCaP cells. In words: Cellular growth inhibition assay for VCaP cells, CellTiter-Glo. Format: cell-based, human. To be noted: VCaP cells, 72 hours, CellTiter-Glo, read-out: GI50. Put shortly: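 GI50 values come from four-parameter curve fits of luminescence data normalized to a zero baseline. Compound, in medium with 0.5% DMSO, was added one day after plating and left for 72 h before CellTiter-Glo 2.0 addition.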

The subject of assay [2] is T-Rex 293 cell line SC3 cells lacking increased expression of androgen receptor protein. In words: Cellular growth inhibition, T-Rex 293 SC3 cells lacking increased androgen receptor expression (no doxycycline), CellTiter-Glo. Format: cell-based. Conditions: T-Rex 293 SC3 cells lacking increased androgen receptor expression (not exposed to doxycycline), 72 hours, CellTiter-Glo; read-out: GI50. An outline of the steps: as §1

For the compound `CCS(=O)(=O)c1ccc(Oc2ccc(CCC3CCN(c4ccc(C(=O)N[C@H]5CC[C@H](Oc6ccc(C#N)c(Cl)c6)CC5)nn4)CC3)c(OC)c2)c(-c2cn(C)c(=O)c3[nH]ccc23)c1` [I-82], the concentration for 50% growth inhibition (GI50) (with T47D cells; in assay [1]; with VCaP cells; in assay [2]) was under 500 nM each time.

On to `CCS(=O)(=O)c1ccc(Oc2ccc(CCC3CCN(c4ccc(C(=O)N[C@H]5CC[C@H](Oc6ccc(C#N)c(Cl)c6)CC5)nn4)CC3)c(Cl)c2)c(-c2cn(C)c(=O)c3[nH]ccc23)c1` [I-84], for which the GI50 with T47D cells is under 500 nM; in assay [1], under 500 nM; with VCaP cells, under 500 nM; in assay [2], over 3000 nM.

Take `CCS(=O)(=O)c1ccc(Oc2ccc(CCC3CCN(c4ccc(C(=O)N[C@H]5CC[C@H](Oc6ccc(C#N)c(Cl)c6)CC5)nn4)CC3)c(C(F)(F)F)c2)c(-c2cn(C)c(=O)c3[nH]ccc23)c1` [I-85]: the GI50 (in the assay with T47D cells; in assay [1]; in the assay with VCaP cells; in assay [2]) was under 500 nM throughout.

Take `CCS(=O)(=O)c1ccc(Oc2ccc(CC3CC4(CCN(c5ccc(C(=O)N[C@H]6CC[C@H](Oc7ccc(C#N)c(Cl)c7)CC6)nn5)CC4)C3)cc2)c(-c2cn(C)c(=O)c3[nH]ccc23)c1` [I-86]: the 50% growth inhibitory concentration (GI50) (in the assay with T47D cells (Homo sapiens); in assay [1]; in the assay with VCaP cells (Homo sapiens); in assay [2]) was under 500 nM each time.

`C=CC1CN(c2ccc(C(=O)N[C@H]3CC[C@H](Oc4ccc(C#N)c(Cl)c4)CC3)nn2)CC1c1ccc(Oc2ccc(S(=O)(=O)CC)cc2-c2cn(C)c(=O)c3[nH]ccc23)cc1` (stereo partly shown) [I-87]: the GI50 with T47D cells was under 500 nM; in assay [1] it was under 500 nM; in the assay with VCaP cells, under 500 nM; in assay [2] it was 500 to 1500 nM.

Turning to `CCS(=O)(=O)c1ccc(Oc2ccc(C(C)(C)N3CC4(CN(c5ccc(C(=O)N[C@H]6CC[C@H](Oc7ccc(C#N)c(Cl)c7)CC6)nn5)C4)C3)cc2)c(-c2cn(C)c(=O)c3[nH]ccc23)c1` [I-88], the GI50 (with T47D cells (Homo sapiens); in assay [1]; in the assay on VCaP cells (Homo sapiens); in assay [2]) was under 500 nM throughout.

In the case of `CCC1CN(c2ccc(C(=O)N[C@H]3CC[C@H](Oc4ccc(C#N)c(Cl)c4)CC3)nn2)CC1c1ccc(Oc2ccc(S(=O)(=O)CC)cc2-c2cn(C)c(=O)c3[nH]ccc23)cc1` (stereo partly shown) [I-89], the concentration for 50% growth inhibition (GI50) is under 500 nM with T47D cells, under 500 nM in assay [1], under 500 nM in the assay on VCaP cells and over 3000 nM in assay [2].

For `CCS(=O)(=O)c1ccc(Oc2ccc(N3CC(C4CCN(c5ccc(C(=O)N[C@H]6CC[C@H](Oc7ccc(C#N)c(Cl)c7)CC6)nn5)CC4)C3)cc2)c(-c2cn(C)c(=O)c3[nH]ccc23)c1` [I-91], the GI50 (in the assay on T47D cells; in assay [1]; in the assay on VCaP cells; in assay [2]) was under 500 nM throughout.

Take `CN(CCCc1ccc(Oc2ccc(C(C)(C)O)cc2-c2cn(C)c(=O)c3[nH]ccc23)cc1)c1ccc(C(=O)N[C@H]2CC[C@H](Oc3ccc(C#N)c(Cl)c3)CC2)nn1` [I-105]: the 50% growth inhibitory concentration (GI50) in the assay with T47D cells was 1500 to 3000 nM; in assay [1], under 500 nM; with VCaP cells it was under 500 nM; in assay [2], under 500 nM.

`Cn1cc(-c2cc(C(C)(C)O)ccc2Oc2ccc(CCC3CCN(c4ccc(C(=O)N[C@H]5CC[C@H](Oc6ccc(C#N)c(Cl)c6)CC5)nn4)CC3)c(F)c2F)c2cc[nH]c2c1=O` [I-112]: the GI50 was 500 to 1500 nM in the assay with T47D cells, under 500 nM in assay [1], 500 to 1500 nM in the assay with VCaP cells and over 3000 nM in assay [2].

Take `Cn1cc(-c2cc(C(C)(C)O)ccc2Oc2ccc(CCC3CCN(c4ccc(C(=O)N[C@H]5CC[C@H](Oc6ccc(C#N)c(Cl)c6)CC5)nn4)CC3)c(F)c2)c2cc[nH]c2c1=O` [I-113]: the GI50 with T47D cells was 500 to 1500 nM; in assay [1], under 500 nM; in the assay with VCaP cells, under 500 nM; in assay [2], over 3000 nM.

Consider `Cn1cc(-c2cc(C(C)(C)O)ccc2Oc2cc(F)c(CCC3CCN(c4ccc(C(=O)N[C@H]5CC[C@H](Oc6ccc(C#N)c(Cl)c6)CC5)nn4)CC3)c(F)c2)c2cc[nH]c2c1=O` [I-114], for which the concentration for 50% growth inhibition (GI50) was 1500 to 3000 nM in the assay on T47D cells, under 500 nM in assay [1], under 500 nM in the assay on VCaP cells and over 3000 nM in assay [2].

For the compound `Cn1cc(-c2cc(C(C)(C)O)ccc2Oc2c(F)cc(CCC3CCN(c4ccc(C(=O)N[C@H]5CC[C@H](Oc6ccc(C#N)c(Cl)c6)CC5)nn4)CC3)cc2F)c2cc[nH]c2c1=O` [I-115], the GI50 in the assay with T47D cells is under 500 nM; in assay [1] it was under 500 nM; in the assay on VCaP cells it was under 500 nM; in assay [2], over 3000 nM.

As for `Cn1cc(-c2cc(C(C)(C)O)ccc2Oc2cc(F)c(CCC3CCN(c4ccc(C(=O)N[C@H]5CC[C@H](Oc6ccc(C#N)c(Cl)c6)CC5)nn4)CC3)cc2F)c2cc[nH]c2c1=O` [I-116], the concentration for 50% growth inhibition (GI50) in the assay on T47D cells was under 500 nM; in assay [1] it was under 500 nM; with VCaP cells, under 500 nM; in assay [2], 500 to 1500 nM.

As to `Cn1cc(-c2cc(C(C)(C)O)ccc2Oc2ccc(CN3CC4(C3)CN(c3ccc(C(=O)N[C@H]5CC[C@H](Oc6ccc(C#N)c(Cl)c6)CC5)nn3)C4)cc2)c2cc[nH]c2c1=O` [I-123], the GI50 in the assay on T47D cells (Homo sapiens) was under 500 nM; in assay [1] it was under 500 nM; in the assay with VCaP cells (Homo sapiens) it was under 500 nM; in assay [2], 500 to 1500 nM.

`Cn1cc(-c2cc(C(C)(C)O)ccc2Oc2ccc(CCC3CC4(C3)CN(c3ccc(C(=O)N[C@H]5CC[C@H](Oc6ccc(C#N)c(Cl)c6)CC5)nn3)C4)cc2)c2cc[nH]c2c1=O` [I-126]: the GI50 (in the assay on T47D cells; in assay [1]; in the assay on VCaP cells; in assay [2]) was under 500 nM each time.

For `Cn1cc(-c2cc(C(C)(C)O)ccc2Oc2ccc(CCCC3CN(c4ccc(C(=O)N[C@H]5CC[C@H](Oc6ccc(C#N)c(Cl)c6)CC5)nn4)C3)cc2)c2cc[nH]c2c1=O` [I-127], the GI50 in the assay on T47D cells was under 500 nM; in assay [1] it was under 500 nM; in the assay with VCaP cells, under 500 nM; in assay [2] it was 500 to 1500 nM.

As to `Cn1cc(-c2cc(C(C)(C)O)ccc2Oc2ccc(CCCC3C4CN(c5ccc(C(=O)N[C@H]6CC[C@H](Oc7ccc(C#N)c(Cl)c7)CC6)nn5)CC34)cc2)c2cc[nH]c2c1=O` (stereo partly shown) [I-128], the GI50 (in the assay on T47D cells; in assay [1]; with VCaP cells; in assay [2]) was under 500 nM throughout.

Consider `Cn1cc(-c2cc(C(C)(C)O)ccc2Oc2ccc(CCC3CN(c4ccc(C(=O)N[C@H]5CC[C@H](Oc6ccc(C#N)c(Cl)c6)CC5)nn4)C3)cc2)c2cc[nH]c2c1=O` [I-129], for which the GI50 (with T47D cells; in assay [1]; with VCaP cells; in assay [2]) was under 500 nM in each case.

Take `Cn1cc(-c2cc(C(C)(C)O)ccc2Oc2ccc(CC3CC4(CCN(c5ccc(C(=O)N[C@H]6CC[C@H](Oc7ccc(C#N)c(Cl)c7)CC6)nn5)CC4)C3)cc2)c2cc[nH]c2c1=O` [I-130]: the concentration for 50% growth inhibition (GI50) (in the assay on T47D cells (Homo sapiens); in assay [1]; in the assay with VCaP cells (Homo sapiens); in assay [2]) was under 500 nM throughout.

Turning to `Cn1cc(-c2cc(C(C)(C)O)ccc2Oc2ccc(CC3CN(c4ccc(C(=O)N[C@H]5CC[C@H](Oc6ccc(C#N)c(Cl)c6)CC5)nn4)C3)cc2)c2cc[nH]c2c1=O` [I-131], the concentration for 50% growth inhibition (GI50) (with T47D cells (Homo sapiens); in assay [1]; with VCaP cells (Homo sapiens); in assay [2]) was under 500 nM throughout.

For the compound `Cn1cc(-c2cc(C(C)(C)O)ccc2Oc2ccc(CCOC3CCN(c4ccc(C(=O)N[C@H]5CC[C@H](Oc6ccc(C#N)c(Cl)c6)CC5)nn4)CC3)c(F)c2)c2cc[nH]c2c1=O` [I-132], the GI50 was under 500 nM in the assay with T47D cells (Homo sapiens), under 500 nM in assay [1], under 500 nM in the assay with VCaP cells (Homo sapiens) and over 3000 nM in assay [2].
